Measured values taken from PubChem BioAssay (NCI).
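Five compound concentrations were applied to cells in 96-well plates for 48 hours; endpoints were derived by simple linear interpolation of the resulting dose-response curve. TGI: concentration producing complete growth inhibition.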

How the values were obtained:
Experiment in all cases: inhibition of tumour cell growth, NCI panel, 48 h
[1] = test system: A549 NSCLC
[2] = test system: EKVX NSCLC
[3] = test system: COLO 205 colon
[4] = test system: HOP-92 NSCLC
[5] = test system: PC-3 prostate
[6] = test system: LOX IMVI melanoma
[7] = test system: HOP-62 NSCLC
[8] = test system: ACHN renal
[9] = test system: HCT-15 colon
[10] = test system: OVCAR-4 ovarian
[11] = test system: NCI-H460 lung
[12] = test system: OVCAR-5 ovarian
[13] = test system: SK-OV-3 ovarian
[14] = test system: IGROV1 ovarian
[15] = test system: NCI-H226 lung
[16] = test system: M14 melanoma
[17] = test system: HL-60(TB) leukemia
[18] = test system: UO-31 renal
[19] = test system: CAKI-1 renal
[20] = test system: HOP-18 NSCLC

| Compound | TGI [1] | TGI [2] | TGI [3] | TGI [4] | TGI [5] | TGI [6] | TGI [7] | TGI [8] | TGI [9] | TGI [10] | TGI [11] | TGI [12] | TGI [13] | TGI [14] | TGI [15] | TGI [16] | TGI [17] | TGI [18] | TGI [19] | TGI [20] |
| --- | --- | --- | --- | --- | --- | --- | --- | --- | --- | --- | --- | --- | --- | --- | --- | --- | --- | --- | --- | --- |
| COc1cc(C2=C(c3cc(OC)c4ccccc4c3OC)C(=O)c3ccccc3C2=O)c(OC)c2ccccc12 | > 100 µM | > 100 µM | > 100 µM | > 100 µM | > 100 µM | > 100 µM | > 100 µM | > 100 µM | > 100 µM | > 100 µM | > 100 µM | > 100 µM | > 100 µM | > 100 µM | > 100 µM | > 100 µM | > 100 µM | > 100 µM | > 100 µM |  |
| Cc1ccc([N+](=O)[O-])cc1S(=O)(=O)Nc1ccc(C2=NOC(c3ccco3)C2)cc1 (stereo not given) | 59.7 µM | 61.9 µM | 80.9 µM | 88.9 µM | 40.5 µM | 40.2 µM | 30.8 µM | 49 µM | 32 µM | 32.7 µM | 37.2 µM | 52.2 µM | 97.4 µM | 84.4 µM | 39.6 µM | 32.8 µM | 54.7 µM | 32.8 µM | 70.4 µM |  |
| CCc1cccc(C(C)(C)C)c1NC(=S)N/C=C(/C#N)C(N)=O | > 100 µM | > 100 µM | > 100 µM | 72 µM | > 100 µM | > 100 µM | > 100 µM | > 100 µM | > 100 µM | > 100 µM | > 100 µM | > 100 µM | > 100 µM | > 100 µM | > 100 µM | > 100 µM | > 100 µM | > 100 µM | > 100 µM |  |
| CC1CCC2(O)C3(C)CC4(O)OC2(C1O)C1(O)C3(O)C(OC(=O)c2ccc[nH]2)C(O)(C(C)C)C41C (stereo not given) | > 100 µM | > 100 µM | > 100 µM | > 100 µM | > 100 µM | > 100 µM | > 100 µM | > 100 µM | > 100 µM | > 100 µM | > 100 µM | > 100 µM | > 100 µM | > 100 µM | > 100 µM | > 100 µM | > 100 µM | > 100 µM | > 100 µM |  |
| Cn1c(=O)c2c(nc3n(CCCCl)c(=O)ccn23)n(C)c1=O | > 100 µM | > 100 µM | > 100 µM | > 100 µM | > 100 µM | > 100 µM | > 100 µM | > 100 µM | > 100 µM | > 100 µM | > 100 µM | > 100 µM | > 100 µM | > 100 µM | > 100 µM | > 100 µM | > 100 µM | > 100 µM | > 100 µM |  |
| CC[C@H](CCCC[C@H]1CC[C@@H]2CC(=O)C[C@H]12)OC | > 100 µM | > 100 µM | > 100 µM | > 100 µM | > 100 µM | > 100 µM | > 100 µM | > 100 µM | > 100 µM | > 100 µM | > 100 µM | > 100 µM | > 100 µM | > 100 µM | > 100 µM | > 100 µM | 67.8 µM | > 100 µM | > 100 µM |  |
| COC(=O)C1=C(C)C(=O)[C@]23C(CCCC[C@H]12)C(=O)[C@H](C(=O)OC)C3C (stereo not given in full) | > 100 µM | > 100 µM | > 100 µM | > 100 µM | > 100 µM | > 100 µM | > 100 µM | > 100 µM | > 100 µM | > 100 µM | > 100 µM | > 100 µM | > 100 µM | > 100 µM | > 100 µM | > 100 µM | > 100 µM | > 100 µM | > 100 µM |  |
| CC1(C)C2C=C(CCN3CCOCC3)CC1C2 (stereo not given) | > 100 µM | > 100 µM | > 100 µM | > 100 µM | > 100 µM | > 100 µM | > 100 µM | > 100 µM | > 100 µM | > 100 µM | > 100 µM | > 100 µM | > 100 µM | > 100 µM | > 100 µM | > 100 µM | > 100 µM | > 100 µM | > 100 µM |  |
| CC(=O)OCCCC(NC(=O)OC(C)(C)C)C(=O)NC(CCCOC(C)=O)C(=O)NC(Cc1ccc([N+](=O)[O-])cc1)C(=O)NCC(=O)OCc1ccccc1 (stereo not given) | 38.8 µM | 33.3 µM | 31.4 µM | 42.1 µM | 30.9 µM | 25.9 µM | 34.8 µM | 31.5 µM | 30.2 µM | 28.8 µM | 29.5 µM | 31.4 µM | 57.6 µM | 34 µM | 31.3 µM | 25.6 µM | 19.5 µM | 30 µM | 34.5 µM |  |
| C/C(N=NS(=O)(=O)c1ccccc1)=C1\C=CC=CN1O | > 100 µM | > 100 µM |  | > 100 µM |  |  | > 100 µM | > 100 µM | > 100 µM | > 100 µM | > 100 µM | > 100 µM | > 100 µM | > 100 µM |  | > 100 µM | > 100 µM | > 100 µM | > 100 µM | > 100 µM |
| COc1ccc(/C=C2\NC(=S)N(/C=C3\C(=O)Oc4ccccc4C3=O)C2=O)cc1OC | > 100 µM | > 100 µM | > 100 µM | > 100 µM | > 100 µM | > 100 µM | > 100 µM | > 100 µM | > 100 µM | > 100 µM | > 100 µM | > 100 µM | > 100 µM | > 100 µM | > 100 µM | > 100 µM | > 100 µM | > 100 µM | > 100 µM |  |
| c1cncc(C2(c3cc4ccccc4[nH]3)COCO2)c1 (stereo not given) | > 100 µM | > 100 µM | > 100 µM | > 100 µM | > 100 µM | > 100 µM | > 100 µM | > 100 µM | > 100 µM | > 100 µM | > 100 µM | > 100 µM | > 100 µM | > 100 µM | > 100 µM | > 100 µM | > 100 µM | > 100 µM | > 100 µM |  |
